Two compounds from patent publication US9744186B2 (priority 2012, dated 2017) can be followed below.

A short description of series [1]: TC50 MTS assay with human cancer cell lines: Huh7. The format is cell-based. Conditions: human, Huh7 cells; 96 h drug treatment. As to the method:
(§1) Plating Cells: The Huh7, HEPG2, HEK293, MCF-7, PK9, RPK9, or BxPC3 cells were passaged when they were about 70% confluent. The cells were counted using a hemocytometer, and then diluted cells to 0.5×10^5 cells per mL in DMEM+10% FBS. 100 µL of the cells (5,000 cells) were plated per well in a clear 96-well plate. The cells were allowed to attach for 24 hours at 37° C.
(§2) Treating the cells: Pre-warm the DMEM media without phenol red+2% FBS media to 37° C. […] This will bring the final DMSO concentration to 0.5%. Use these 0.5 mM dilutions to further serially the drugs in DMEM without phenol red+2% FBS+0.5% DMSO. This will keep the concentration of DMSO in each condition identical. Remove the 96-well plate from the 37° C. incubator. Replace the media on the plate with the dilutions of the drugs. Stagger these treatments by 1 h and write the treatment time on each set of plates. Return to 37° C. for 48 h or 96 h as indicated.
(§3) MTS Assay: The reagents from CellTiter 96 kit (Promega Corporation, Madison, Wis.) were thawed at room temperature in the dark for 1 h. The 96-well plate was removed from the 37° C. incubator at 48 h after drug treatment. 20 μL of the combined MTS/PMS reagent to each well of the plate, mixed, and the plate returned to 37° C. The absorbance of each well at 490 nm and 650 nm was determined using the Flexstation 3 microplate reader in endpoint mode every hour for 3 h. The solutions in the wells were mixed prior to each reading. Fit Data to the Emax model: y=(Emax*x)/(TC50+x), where Emax is the maximum inhibition and TC50 is the inhibitory dose 50%. Alternatively, fit the data to the Emax sigmoidal model: y=(Emax*x^slope)/(TC50^slope+x^slope), where slope is the Hill Slope.
(§4) Each TC50 was the average value of three measurements as described herein. […] The RPK9 cells are deficient in deoxycytidine kinase (“dCK”) activity, an enzyme required for the initial phosphorylation of dFdC to dFdCMP (see FIG. 2).
A general note: Tetrazolium dyes change colour on reduction, which living cells bring about.

Series [2] can be described thus: TC50 MTS assay with human cancer cell lines: HEK293. It is filed as cell-based. The following applies: HEK293 cells, 96 h drug treatment. As to the method:
as §1, §2, §3, §4

The nature of series [3]: TC50 MTS assay with human cancer cell lines: HEPG2. It is filed as cell-based. The following applies: HEPG2 cells, 96 h drug treatment. As to the method: as §1, §2, §3, §4
Series [4] can be described thus: TC50 MTS assay with human cancer cell lines: MCF-7. Conditions: MCF-7 cells, 96 h drug treatment. The format is cell-based. Here is the method: as §1, §2, §3, §4
Series [5] deals with HCV luciferase replicon. In words: HCV luciferase replicon IC50 assay in Huh7 cells. Conditions: for IC50: Hepatitis C virus; for Therapeutic Index (TC50/IC50): TC50 in Huh7 / IC50 HCV replicon, 48 h. As to the method: Plating Cells: The Luciferase replicon cell line was passaged when it was at about 70% confluency. The cells were counted by using a hemocytometer and diluted to 1×10^5 cells per mL in DMEM+10% FBS+[…] G415. The cells were plated as follows: 100 μL of the cells (10,000 cells) per well in a white-walled 96-well plate. The cells were allowed to attach for 24 hours at 37° C.
(§5) Treating the cells: Media (DMEM+2% FBS) was pre-warmed to 37° C. […] The 96-well plate was removed from the 37° C. incubator, and the media replaced on the plate with the serial dilutions of the test drug. The plate was then returned to 37° C. for 48 h.
Luciferase Assay: The Bright-Glo reagent (Promega Corporation, Madison, Wis.) was removed from the −80° C. freezer and allowed to thaw it at 4° C. in the dark. The amount of reagent necessary for the experiment (3.65 mL) was removed, and the remaining reagent was returned to −80° C. The Glo Lysis Buffer and the Bright Glow reagent were allowed to warm to room temperature for 30 min in the dark. The 96 well plate was removed from the incubator and the cells to allowed cool to room temperature for 30 min. The media was removed from the cells, and each well was gently washed in 100 μL of phosphate buffered saline (PBS). The PBS was removed and then 50 μL of the Glo Lysis Buffer was added to each well, followed by gently rocking the plate for 15 min at room temperature in the dark to ensure complete cell lysis. To each well of the 96-well plate was added 50 μL of the Bright Glo reagent and it was mixed well with the lysate. The plate was inserted into a GloMax 96 plate reader and allowed to sit for 5 min in the dark for the luciferase reaction to reach a steady state. The luminescence on the plate was read by using the pre-installed “Bright Glo” Promega program (Synergy Software) and the data were collected and saved. The data were fit to a 4 parameter logistic curve using Kaleidagraph using the following equation: 100/(1+(x/m3)^m4).
The data in Table 1 were determined for cells exposed to drug for 48 h. The IC50 is the concentration of each compound necessary to inhibit the replication of the HCV luciferase replicon to 50%.
That is, the cells were exposed to drug for 2 h at 37° C., followed by 46 h at 37° C. or incubated in the presence of drug for 48 h at 37° C.
For orientation: Replicon systems follow genome replication, usually without infectious particles.

In series [6] the test system is HCV luciferase replicon. Nature of the series: Reversal of anti-HCV activity by exogenous nucleosides. The format is cell-based, hepatitis C virus (HCV). The following applies: drug 1000, 100 or 25 nM; 50 μM cytidine or 2′-deoxycitidine; 48 h. Here is the method:
After 48 hours, the cells were lysed, and the total luciferase activity was determined. […] Where indicated, either 50 μM cytidine (C) or 50 μM 2′-deoxycitidine (dC) was also included.
The cells were plated, incubated with drug, and luciferase activity assayed essentially as described herein above. The incubation with drug was for 48 h.

Series [7] can be described thus: Compound solubility in media. It is filed as physicochemical. The following applies: DMEM+2% FBS cell culture media, 37 °C, plasma or biological fluid, kinetic from dmso stock; DMEM+2% FBS media. Here is the method:
as §5

Series [8] can be described thus: Stability test of HPLC-purified gemcitabine analogs at different pH conditions. The format is physicochemical. Conditions: 200 μM. As to the method:
The solution was then incubated for 4 hours at 40° C. [table] HPLC analysis: 100 μl of the incubated solution was loaded onto the Vydac C18 analytical column 4.6/250 at 1 ml/min water with the following procedures: a. Inject 100 μl the incubated solution; b. Water for 5 minutes at 1 ml/min; c. 0-100% methanol over 30 minutes; d. Back to 20% methanol. Analysis: The standard HPLC analysis software was used to quantitate the area under each peak. Degradation peaks are quantitated as a percentage of the peak of the same amount of control sample (no heat treatment).

Where [9] appears, read: Huh-7, 48 h, Huh7 cells containing HCV luciferase replicon, cells exposed to drug for 48 h.
[10] abbreviates: Pretreatment (control sample, no heat treatment).

For orientation: CC50 means the concentration at which the toxic effect on the cells reaches its halfway point. A high value points to lower toxicity to the cells. By IC50 is commonly meant the concentration needed to halve the response being measured. Broadly, the solubility is the dissolved amount per volume that the medium holds. Consider `COc1cc(C(=O)Nc2ccn([C@@H]3O[C@H](CO)[C@@H](O)C3(F)F)c(=O)n2)cc(OC)c1OC` [GTB, N^4-(3,4,5-Trimethoxybenzoyl)gemcitabine], for which the CC50 at 96 h in series [1] stood at 5050 ± 1220 nM; in series [2], 1280 ± 260 nM; in series [3] it was 1670 ± 420 nM; in series [4] it was 566 ± 118 nM. In addition, the half-inhibitory concentration (IC50) with HCV luciferase replicon [5] (setting [9]) was 49.3 ± 8.8 nM; with HCV luciferase replicon [5] (Huh-7, 48 h, cells incubated with drug continuously for 48 h (Table 5)) it was 49.3 ± 8.8 nM; with HCV luciferase replicon [5] (Huh-7, cells incubated with drug for 2 h, followed by 46 h without drug) it was 2770 ± 265 nM. Further, the “Therapeutic Index (TC50/IC50)” value in the series with HCV luciferase replicon [5] is reported as 10040. Also, the “reversal of the inhibition of the HCV luciferase replicon by deoxycytidine and cytidine” value in the series with HCV luciferase replicon [6] is given as “reversal”. In series [7], this compound returned a solubility of over 500 µM. Moreover, the “% remaining” value in series [8] (setting [10]) worked out at 100%; in series [8] (pH 1, 4 hours at 40° C.) it was 86%; in series [8] (pH 2, 4 hours at 40° C.), 87%; in series [8] (pH 4, 4 hours at 40° C.), 98.6%; in series [8] (pH 6, 4 hours at 40° C.), 99.5%; in series [8] (pH 8, 4 hours at 40° C.) it was 82.7%.

Consider `O=C(Nc1ccn([C@@H]2O[C@H](CO)[C@@H](O)C2(F)F)c(=O)n1)c1cc(Cl)cc(Cl)c1` [GCB, N^4-(3,5-Dichlorobenzoyl)gemcitabine], for which the CC50 at 96 h in series [1] was determined as 4170 ± 1060 nM; in series [2], 1190 ± 180 nM; in series [3] it was 633 ± 207 nM; in series [4], 326 ± 88 nM. Also, the half-inhibitory concentration (IC50) in the series on HCV luciferase replicon [5] (setting [9]) came out at 25.5 ± 2.2 nM. Further, the “Therapeutic Index (TC50/IC50)” value in the series on HCV luciferase replicon [5] was 4310. For the same compound, the “reversal of the inhibition of the HCV luciferase replicon by deoxycytidine and cytidine” value in the series on HCV luciferase replicon [6] is “reversal”. For the same compound, the solubility in series [7] was under 500 µM. Also, the “% remaining” value in series [8] (setting [10]) stood at 100%; in series [8] (pH 1, 4 hours at 40° C.) it was 35%; in series [8] (pH 2, 4 hours at 40° C.) it was 82%; in series [8] (pH 4, 4 hours at 40° C.), 98.4%; in series [8] (pH 6, 4 hours at 40° C.) it was 99.6%; in series [8] (pH 8, 4 hours at 40° C.), 35.4%.
